Laboratory results as given in PMC8748916, “Microbial enzymes induce colitis by reactivating triclosan in the mouse gastrointestinal tract” (Nature Communications, 2022).
“And” between values parts separate entries of the source, which are not always exact repeats. Equal entries are not always repeated.

Key:
[1] = LC-MS/MS of TCS and its metabolites in human stool and urine after use of TCS-containing personal care products; format: in vivo; settings: for Profile in urine (%) / Profile in stool (%): TCS-exposed human subjects; for Profile in urine (%): n=7 urine samples; for Profile in stool (%): n=23 stool samples; for TCS metabolites in human stool / TCS metabolites in human urine: Treatment TCS, individual subjects;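 for Profile in stool (%): molar share of summed TCS plus TCS-G plus TCS-sulfate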;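 for Profile in urine (%): molar share of summed TCS plus TCS-G plus TCS-sulfate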;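 for average molar concentration ratio: molar share of summed TCS plus TCS-G plus TCS-sulfate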
From the text: To broaden our understanding of TCS metabolic profiles in the gut, we next analyzed TCS metabolism in human subjects. We utilized urine and stool samples from a previous study in which the recruited human subjects were first subjected to a washout period (no usage of TCS-containing products), then were randomly assigned to two groups that used personal care products like toothpaste with or without TCS for up to four months (see the scheme of the experiment in Fig. 1c)[15]. Previous data had established that humans are primarily exposed to TCS via toothpaste that provides a direct oral route to the gastrointestinal tract[16],[17].

mouse fecal bacteria = experiment: Conversion of TCS-G to TCS by anaerobically cultured mouse fecal bacteria in vitro; format: in vitro ADME; settings: from TCS-G, replicates
[2] = design: method as in earlier work; settings: human, ref 32,33 (reply to reviewers), cited from earlier work
Clostridiales sp. GUS = experiment: In vitro IC50 assay (TCS-G to TCS conversion, HPLC); format: biochemical; settings: for Clostridiales sp. GUS % inhibition: Fig. 4c, triplicate
Procedure: (§1) Reaction mixtures containing 10 µL GUS (10 nM final), 10 µL TCS-G (200 µM final), 5 µL inhibitor (various concentrations), and 25 µL buffer (50 mM HEPES, 50 mM NaCl, various pH) or (50 mM sodium acetate, 50 mM NaCl, various pH) were incubated for 10 min and quenched with 50 µL 25% trichloroacetic acid. Samples were centrifuged 10 min at 16,000 × g, and the supernatant was analyzed using the method described for the catalytic efficiency assay. Inhibition was calculated by the equation below:1 %inhibition=100×(1−(AUCinh−AUCmax)/(AUCmin−AUCmax)) where AUCmin is the signal of the uninhibited reaction, AUCmax is the signal of the 100% inhibited reaction, and AUCinh is the signal of the reaction at a given concentration of inhibitor. Percent inhibition values were plotted against the log of inhibitor concentration, and GraphPad Prism 8.0 was used to determine IC50 values.

E. eligens GUS = E. eligens GUS (Lachnospira eligens, UniProt C4Z6Z2); experiment: as above; format: biochemical
Procedure: as §1

F. prausnitzii GUS = F. prausnitzii GUS (Faecalibacterium prausnitzii, UniProt C7H4D2); experiment: as above; format: biochemical
Procedure: as §1

R. hominis 3 GUS = biological target: T1, R. hominis 3 GUS (Roseburia hominis, UniProt A0A395V874); experiment: as above; format: biochemical
T1 sequence (A0A395V874 1-734): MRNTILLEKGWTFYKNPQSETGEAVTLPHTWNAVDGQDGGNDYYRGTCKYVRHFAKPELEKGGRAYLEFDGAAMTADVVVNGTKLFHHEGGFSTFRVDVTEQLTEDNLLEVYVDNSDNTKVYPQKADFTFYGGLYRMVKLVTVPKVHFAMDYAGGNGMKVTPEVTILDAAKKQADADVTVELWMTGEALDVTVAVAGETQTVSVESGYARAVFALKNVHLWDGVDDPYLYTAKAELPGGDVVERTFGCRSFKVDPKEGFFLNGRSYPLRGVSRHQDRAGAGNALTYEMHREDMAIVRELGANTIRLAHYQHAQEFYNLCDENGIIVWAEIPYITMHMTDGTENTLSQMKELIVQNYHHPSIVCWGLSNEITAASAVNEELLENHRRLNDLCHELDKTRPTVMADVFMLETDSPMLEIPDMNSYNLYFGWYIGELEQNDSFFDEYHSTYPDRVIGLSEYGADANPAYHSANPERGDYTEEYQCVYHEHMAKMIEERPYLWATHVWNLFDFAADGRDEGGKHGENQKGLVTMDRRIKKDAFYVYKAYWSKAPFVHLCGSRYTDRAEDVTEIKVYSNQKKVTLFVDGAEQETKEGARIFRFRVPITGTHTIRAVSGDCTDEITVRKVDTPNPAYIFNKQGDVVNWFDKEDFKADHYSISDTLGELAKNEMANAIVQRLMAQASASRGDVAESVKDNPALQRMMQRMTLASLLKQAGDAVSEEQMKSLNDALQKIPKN
Procedure: as §1

C. perfringens GUS = C. perfringens GUS (Clostridium perfringens, UniProt Q8XP19); experiment: biochemical
[3] = Solubility in water (statement); format: physicochemical; settings: authors' reply to reviewers
[4] = test system: epithelial cells in the ileum, proximal or distal colon; design: method as in PMID 32170007; settings: proximal or distal colon of the treated mice; cited from earlier work
fecal microbiota = experiment: 16S rRNA sequencing of fecal microbiota of GUSi-treated mice; settings: 1 mg/kg GUSi via oral gavage
Rh3 GUS mutants = experiment: Catalytic efficiency assay, wild-type and mutant Rh3 GUS; format: biochemical, R. hominis; settings: Fig. 3j, replicates 1-3
[5] = treatment time 0 months (after washout)
[6] = human stool, TCS-exposed subjects
[7] = human urine, TCS-exposed subjects
[8] = GUSi 0.411523 uM, Fig. 4b, triplicate
[9] = GUSi 3.7037 uM, Fig. 4b, triplicate
[10] = GUSi 11.1111 uM, Fig. 4b, triplicate
[11] = GUSi 33.3333 uM, Fig. 4b, triplicate
[12] = GUSi 100 uM, Fig. 4b, triplicate
[13] = GUSi 33.3333 uM, Fig. 4c, triplicate
[14] = read-out: C. perfringens GUS % inhibition

Oc1cc(Cl)ccc1Oc1ccc(Cl)cc1Cl [TCS, Triclosan]
Profile in urine (%) [1]: 1.57% | Profile in stool (%) [1]: 99.16% | TCS metabolites in human stool [1, 5]: < LOD and 12.62 pmol/ g stool and 10.84 pmol/ g stool and 388.08 pmol/ g stool and 57.90 pmol/ g stool | TCS metabolites in human urine [1, 5]: < LOD | TCS metabolites in human stool ([1]; treatment time 1 month): 1094.80 pmol/ g stool and 225.14 pmol/ g stool and 1049.03 pmol/ g stool and 626.33 pmol/ g stool and 215.36 pmol/ g stool and 317.47 pmol/ g stool | TCS metabolites in human urine ([1]; treatment time 1 month): < LOD | TCS metabolites in human stool ([1]; treatment time 2 months): 372.82 pmol/ g stool and 713.18 pmol/ g stool and 245.09 pmol/ g stool and 96.24 pmol/ g stool and 905.85 pmol/ g stool | TCS metabolites in human urine ([1]; treatment time 2 months): 8.55 nM urine | TCS metabolites in human stool ([1]; treatment time 3 months): 515.81 pmol/ g stool and 334.49 pmol/ g stool and 515.22 pmol/ g stool and 400.99 pmol/ g stool and 445.98 pmol/ g stool and 105.82 pmol/ g stool | TCS metabolites in human urine ([1]; treatment time 3 months): < LOD | TCS metabolites in human stool ([1]; treatment time 4 months): 633.76 pmol/ g stool and 67.29 pmol/ g stool and 968.25 pmol/ g stool and 633.96 pmol/ g stool and 135.75 pmol/ g stool and 295.56 pmol/ g stool | TCS metabolites in human urine ([1]; treatment time 4 months): 3.06 nM urine and 6.42 nM urine and 11.23 nM urine and 5.52 nM urine | average molar concentration ratio [1, 6]: 99.2% | concentration of free TCS measured in stool (highest) [1, 6]: ≤ 1 pmol/mg tissue | concentration of free TCS measured in stool (highest), equated [1, 6]: ~ 1 µM | TCS concentrations in urine [1, 7]: low-nM range | average molar concentration ratio [1, 7]: 1.6% | TCS formed (mouse fecal bacteria): 17.00 pmol and 16.49 pmol and 18.41 pmol | plasma concentrations of TCS (TCS plus TCS-G) ([2]; after weeks of daily use of TCS-containing toothpaste): 90–1,000 nM | plasma concentrations of TCS (TCS plus TCS-G), baseline ([2]; before use of TCS-containing toothpaste): 0.03 to 2.7 nM

C1CCc2c(c(N3CCOCC3)nc3sc4c(N5CCNCC5)nnnc4c23)C1 [GUSi, UNC10201652]
Clostridiales sp. GUS % inhibition (Clostridiales sp. GUS; GUSi 11.1111 uM): 28.4771% and 43.1829% and 36.9382% | Clostridiales sp. GUS % inhibition (Clostridiales sp. GUS; GUSi 33.3333 uM): 61.452% and 67.3548% and 67.8202% | Clostridiales sp. GUS % inhibition (Clostridiales sp. GUS; GUSi 100 uM): 79.8338% and 82.8373% and 85.2439% | IC50 (Clostridiales sp. GUS; conversion of TCS-G (200 µM) to TCS, FMN-binding GUS): 4 ± 1 µM | IC50 (E. eligens GUS): 3.1 ± 0.1 µM | inhibition at 0.0457247 µM (E. eligens GUS; GUSi 0.0457247 uM, Fig. 4b, triplicate): 0% | inhibition at 0.137174 µM (E. eligens GUS; GUSi 0.137174 uM, Fig. 4b, triplicate): 0% | inhibition at 0.411523 µM (E. eligens GUS; [8]): 0% | E. eligens GUS % inhibition (E. eligens GUS; GUSi 1.23457 uM, Fig. 4b, triplicate): 2.145% and 1.672% | E. eligens GUS % inhibition (E. eligens GUS; [9]): 67.2992% and 67.384% | inhibition at 3.7037 µM (E. eligens GUS; [9]): 64.7% | E. eligens GUS % inhibition (E. eligens GUS; [10]): 95.2204% and 97.0627% | inhibition at 11.1111 µM (E. eligens GUS; [10]): 90% | E. eligens GUS % inhibition (E. eligens GUS; [11]): 103.909% and 106.718% | inhibition at 33.3333 µM (E. eligens GUS; [11]): 97.2% | E. eligens GUS % inhibition (E. eligens GUS; [12]): 105.208% and 106.762% | inhibition at 100 µM (E. eligens GUS; [12]): 97.5% | F. prausnitzii GUS % inhibition (F. prausnitzii GUS; [8]): -3.256% and -6.409% and 1.703% | F. prausnitzii GUS % inhibition (F. prausnitzii GUS; [9]): 31.508% and 41.6292% | inhibition at 3.7037 µM (F. prausnitzii GUS; [9]): 30.3% | F. prausnitzii GUS % inhibition (F. prausnitzii GUS; [10]): 65.4843% and 60.2667% | inhibition at 11.1111 µM (F. prausnitzii GUS; [10]): 68.7% | F. prausnitzii GUS % inhibition (F. prausnitzii GUS; [11]): 79.5271% and 77.5064% | inhibition at 33.3333 µM (F. prausnitzii GUS; [11]): 74.1% | F. prausnitzii GUS % inhibition (F. prausnitzii GUS; [12]): 90.4792% and 87.3233% | inhibition at 100 µM (F. prausnitzii GUS; [12]): 85.7% | IC50 (F. prausnitzii GUS; conversion of TCS-G (200 µM) to TCS, Loop 1 GUS): 4.9 ± 0.8 µM | IC50 (R. hominis 3 GUS): > 100 µM | R. hominis 3 GUS % inhibition (R. hominis 3 GUS; GUSi 3.7037 uM, Fig. 4c, triplicate): 2.389% and -2.0752% and 4.091% | R. hominis 3 GUS % inhibition (R. hominis 3 GUS; [13]): 18.9209% and 35.4136% | inhibition at 33.3333 µM (R. hominis 3 GUS; [13]): 23.2% | R. hominis 3 GUS % inhibition (R. hominis 3 GUS; GUSi 100 uM, Fig. 4c, triplicate): 34.5947% and 39.5508% and 57.3604% | IC50 (C. perfringens GUS): 0.64 ± 0.04 µM | inhibition at 1.23457 µM (C. perfringens GUS; [14]): 78% | inhibition at 3.7037 µM (C. perfringens GUS; [14]): 93.9% | inhibition at 11.1111 µM (C. perfringens GUS; [14]): 97.7% | inhibition at 33.3333 µM (C. perfringens GUS; [14]): 98.6% | inhibition at 100 µM (C. perfringens GUS; [14]): 99.4% | solubility in water [3]: poorly solubilized | effect on the proliferation of epithelial cells [4]: no effect | effect on the diversity or composition of fecal microbiota (fecal microbiota): little effect

O=C(O)C1OC(Oc2cc(Cl)ccc2Oc2ccc(Cl)cc2Cl)C(O)C(O)C1O (stereo not drawn) [TCS-G, triclosan-glucuronide]
Profile in urine (%) [1]: 98.39% | Profile in stool (%) [1]: 0.80% | TCS metabolites in human stool [1, 5]: 10.69 pmol/ g stool and 5.96 pmol/ g stool and < LOD and 10.80 pmol/ g stool | TCS metabolites in human urine [1, 5]: 18.4 nM urine and 3.47 nM urine and < LOD and 12.5 nM urine | TCS metabolites in human stool ([1]; treatment time 1 month): 10.24 pmol/ g stool and 13.69 pmol/ g stool and < LOD (3×) and 2.81 pmol/ g stool | TCS metabolites in human urine ([1]; treatment time 1 month): 626 nM urine | TCS metabolites in human stool ([1]; treatment time 2 months): 3.18 pmol/ g stool and 2.97 pmol/ g stool and < LOD (2×) and 4.42 pmol/ g stool | TCS metabolites in human urine ([1]; treatment time 2 months): 953 nM urine | TCS metabolites in human stool ([1]; treatment time 3 months): 7.01 pmol/ g stool and 5.96 pmol/ g stool and < LOD (3×) and 6.49 pmol/ g stool | TCS metabolites in human urine ([1]; treatment time 3 months): 771 nM urine | TCS metabolites in human stool ([1]; treatment time 4 months): 7.57 pmol/ g stool and < LOD (3×) and 3.12 pmol/ g stool and 4.69 pmol/ g stool | TCS metabolites in human urine ([1]; treatment time 4 months): 1037 nM urine and 70.9 nM urine and 1373 nM urine and 775 nM urine | average molar concentration ratio [1, 6]: 0.8% | average molar concentration ratio [1, 7]: 98.4% | Catalytic efficiency (Rh3 GUS mutants; Enzyme: Rh3 F406A): 147440 M⁻¹ s⁻¹ and 148640 M⁻¹ s⁻¹ and 151680 M⁻¹ s⁻¹ | Catalytic efficiency (Rh3 GUS mutants; Enzyme: Rh3 L635STOP): 0 M⁻¹ s⁻¹ | Catalytic efficiency (Rh3 GUS mutants; Enzyme: Rh3 Y430A): 0 M⁻¹ s⁻¹
